Laboratory results reported in patent EP4389746A2, “P2X3 RECEPTOR ANTAGONISTS” (Recordati Industria Chimica E Farmaceutica SPA, priority 2022, dated 2024).

Tests used:
human P2X3 receptor = molecular target: T1, human P2X3 receptor (Homo sapiens, UniProt P56373); experiment: Calcium luminescence measurement: human P2X3 receptor activity inhibition (CHO-K1 cells, photoprotein readout, FLEXSTATION); type: cell-based; details: CHO-K1 cells co-expressing human P2X3 and Ca2+ sensitive photoprotein; agonist α,β-Met-ATP; read-out: h-P2X3 IC50
T1 construct: expressed in transfected cells; host or cells: CHO-K1
T1 sequence (P56373 1-397): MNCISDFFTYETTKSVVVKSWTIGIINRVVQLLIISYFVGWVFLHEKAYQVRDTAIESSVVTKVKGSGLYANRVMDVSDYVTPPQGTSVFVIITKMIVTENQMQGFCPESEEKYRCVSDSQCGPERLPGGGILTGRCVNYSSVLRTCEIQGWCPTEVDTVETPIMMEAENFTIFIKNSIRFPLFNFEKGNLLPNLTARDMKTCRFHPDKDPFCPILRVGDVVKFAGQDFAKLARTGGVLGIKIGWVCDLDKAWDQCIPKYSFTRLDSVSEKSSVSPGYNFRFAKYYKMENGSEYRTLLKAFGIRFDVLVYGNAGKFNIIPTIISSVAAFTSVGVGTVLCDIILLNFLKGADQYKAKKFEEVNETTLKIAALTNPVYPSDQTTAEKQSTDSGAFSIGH

C57BL/6J mice = experiment: Scratching model: inhibition of ATP induced pruritus in mouse; type: in vivo
Description: (§1) C57BL/6J mice, Hartley Guinea pigs and Sprague-Dawley Rats from Charles River Italy were used in the experiments. Animals were housed with free access to food and water and maintained on a forced 12 hr light-dark cycle at 22-24°C for at least one week before the experiments were carried out. The animals were handled according to internationally accepted principles for care of laboratory animals (Directive 2010/63/EU of the European Parliament and of the Council of 22 September 2010).
"Scratchng model" - Inhibition of ATP induced pruritus in mouse
Mice were shaved at the rostral back the day before injection. The day of the experiment, an intradermal injection of the irritant agent α,β-meATP 200 µg/50 µL (Sigma, Italy) into the skin was performed. The hind limb scratching behavior directed toward the injection site, was recorded. One bout was defined as the lifting of the hindlimb toward the injection site and then placing the limb back on the floor. The number of bouts were counted for a period of 30 minutes. The Example 22 compound investigated was injected intraperitoneally 30 min before the administration of the irritant agent. (Fig. 2)
In the scratching model the results are presented as mean ± SEM of the values. Statistical analysis was performed using one-way ANOVA and Dunnet's test for multiple comparisons. The ED35 of the tested compounds was determined by linear regression analysis of bouts (Graphpad v5).

Sprague-Dawley Rats = experiment: Two bottle taste test in rats: dysgeusia effect of P2X3 antagonists; type: in vivo; details: rats water fasted overnight; bottles presented 30 minutes after treatment for 15 minutes (Fig. 4)
Description: as §1
(Fig 3) "Two bottle taste test" in rats - Dysgeusia effect of P2X3 antagonists
Rats were water fasted overnight. The day of the experiment the animals were treated with tested compounds and 30 minutes later two bottles were presented for 15 minutes, the first one containing water and the second bottle containing Quinine, a substance showing a bitter taste. The volume of liquid drunk in 15 minutes from each bottle was recorded and expressed as percentage of preference (Fig.4). Statistical analysis was performed on absolute values (mean ± SEM) using one-way ANOVA and Tukey's test for multiple comparisons.

IC50 (human P2X3 receptor): 36.8 nM
SMILES: CC(C)C1C(=O)N=C2c3ncc(N4CCOCC4)cc3N(Cc3ccc(Cl)cc3)C(=O)N21 (racemic) [Example 22, 6-[(4-Chlorophenyl)methyl]-8-(morpholin-4-yl)-3-(propan-2-yl)imidazo[1,2-c]pyrido[2,3-e]pyrimidine-2,5(3H,6H)-dione]
ED35 (C57BL/6J mice; dose inhibiting the 35% of number of bouts, intraperitoneally 30 min before α,β-meATP 200 µg/50 µL intradermal, bouts counted for 30 minutes): 10.62 mg/kg | number of bouts (C57BL/6J mice; intraperitoneally 30 min before α,β-meATP, vs vehicle group (Fig. 2)): reduce the number of bouts significantly and in a dose-related manner | preference between water and Quinine (Sprague-Dawley Rats): showed a clear preference for water in comparison to Quinine
